# Values of other authors in patent publication US20110252579A1, “METHOD FOR TREATING FABRICS” (priority 2010, published 2011).
# Structures can show the parent of a compound that is named as a salt.
# Tested on: not given
# Conditions: in water
row,SMILES,water solubility
1,OCCOc1ccccc1 [2-phenoxyethanol],about 2.67%
2,OCCc1ccccc1 [2-phenylethanol],about 2%
3,"O=[N+]([O-])C1(Br)COCOC1 [Bronidox L, 5-bromo-5-nitro-1,3-dioxane]",about 0.46%
4,"O=[N+]([O-])C(Br)(CO)CO [Bronopol, 2-bromo-2-nitropropane-1,3-diol]",about 25%
5,"CC1(C)C(=O)N(CO)C(=O)N1CO [DMDM hydantoin, 1,3-bis(hydroxymethyl)-5,5-dimethyl-2,4-imidazolidinedione]",more than 50%
6,OCc1ccccc1 [benzyl alcohol],about 4%
7,"[H]/N=C(\N/C(=N/[H])NCCCCCCNC(=N)NC(=N)Nc1ccc(Cl)cc1)Nc1ccc(Cl)cc1 [chlorhexidine diacetate salt, 1,1′-hexamethylene bis(5-(p-chlorophenyl)biguanide), reference compound]",about 1.8%
8,"[H]/N=C(\N/C(=N/[H])NCCCCCCNC(=N)NC(=N)Nc1ccc(Cl)cc1)Nc1ccc(Cl)cc1 [chlorhexidine digluconate salt, 1,1′-hexamethylene bis(5-(p-chlorophenyl)biguanide), reference compound]",about 70%
9,"CC(C)(O)C(Cl)(Cl)Cl [chlorobutanol, 1,1,1-Trichloro-2-methylpropan-2-ol]",about 0.8%
10,[Na+].[O-][n+]1ccccc1[S-] [sodium pyrithione],about 50%

# Tested on: typical Gram negative and positive bacteria, fungi and yeasts
# Conditions: level from about 0.001% to about 0.5% by weight of the usage composition
row,SMILES,"effectiveness against Gram negative and positive bacteria, fungi and yeasts"
1,"Cn1sc2c(c1=O)CCC2 [Promexal, 2-methyl-4,5-trimethylene-4-isothiazolin-3-one]",effective
2,"O=c1[nH]sc2ccccc12 [Proxel, 1,2-benzisothiazolin-3-one]",effective

# Tested on: bacteria
# Conditions: not given
row,SMILES,antimicrobial spectrum
1,"CC1(C)C(=O)N(CO)C(=O)N1CO [DMDM hydantoin, 1,3-bis(hydroxymethyl)-5,5-dimethyl-2,4-imidazolidinedione]",mainly effective on bacteria
